{"source": "ChEMBL document CHEMBL1125810", "about": "“Acyclic analogues of 2-(4-phenylpiperidino)cyclohexanol (vesamicol): conformationally mobile inhibitors of vesicular acetylcholine transport” (J Med Chem, 1991)"}
{"biological_target": "T1, Vesicular acetylcholine transporter (Torpedo californica, UniProt P81721)", "T1 sequence (P81721 whole entry)": "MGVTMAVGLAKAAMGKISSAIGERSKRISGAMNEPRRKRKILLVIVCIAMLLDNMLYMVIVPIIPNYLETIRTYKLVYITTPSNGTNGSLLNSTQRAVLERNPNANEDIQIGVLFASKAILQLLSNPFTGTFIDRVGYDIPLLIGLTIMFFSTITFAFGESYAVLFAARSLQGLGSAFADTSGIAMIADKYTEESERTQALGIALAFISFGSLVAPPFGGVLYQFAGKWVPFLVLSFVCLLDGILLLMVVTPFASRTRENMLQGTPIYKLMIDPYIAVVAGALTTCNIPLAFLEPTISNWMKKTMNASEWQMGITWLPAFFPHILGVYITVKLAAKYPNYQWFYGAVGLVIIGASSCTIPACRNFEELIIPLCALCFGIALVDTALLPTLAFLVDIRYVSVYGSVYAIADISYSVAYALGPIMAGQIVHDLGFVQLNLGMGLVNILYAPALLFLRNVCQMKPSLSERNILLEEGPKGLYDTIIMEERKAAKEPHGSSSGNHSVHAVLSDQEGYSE", "assay": "Displacement of [3H]vesamicol from Vesamicol receptor of Torpedo californica", "set-up": "species or system Tetronarce californica", "units": {"IC50": "nM"}}
{"smiles": "OC(Cc1cccc(Br)c1)CN1CCC(c2ccccc2)CC1", "note": "(centres undefined)", "IC50": 73}
{"smiles": "OC(Cc1cccc2ccccc12)CN1CCC(c2ccccc2)CC1", "note": "(centres undefined)", "IC50": 1400}
{"smiles": "Oc1cccc(CC(O)CN2CCC(c3ccccc3)CC2)c1", "note": "(centres undefined)", "IC50": 520}
{"smiles": "OC(Cc1ccc2ccccc2c1)CN1CCC(c2ccccc2)CC1", "note": "(centres undefined)", "IC50": 145}
{"smiles": "Oc1ccc(CC(O)CN2CCC(c3ccccc3)CC2)cc1", "note": "(centres undefined)", "IC50": 220}
{"smiles": "COc1cccc(CC(O)CN2CCC(c3ccccc3)CC2)c1", "note": "(centres undefined)", "IC50": 115}
{"smiles": "OC(Cc1cccc(I)c1)CN1CCC(c2ccccc2)CC1", "note": "(centres undefined)", "IC50": 73}
{"smiles": "OC(Cc1ccc(Br)cc1)CN1CCN(c2ccccc2)CC1", "note": "(centres undefined)", "IC50": 1540}
{"smiles": "OC(Cc1cccc(Br)c1)CN1CCN(c2ccccc2)CC1", "note": "(centres undefined)", "IC50": 990}
